According to ChEMBL document CHEMBL1154344, “New quaternary ammonium oxicam derivatives: synthesis and in vitro antiosteoarthritis evaluation” (2010):
Active and inactive are the calls of the source. No cut-off for these calls is given here.

How the values were obtained:
Bos taurus [1] = organism: Bos taurus; experiment: Antiosteoarthritis activity in bovine articular chondrocytes assessed as restoration of IL-1-inuced inhibition of proteoglycans biosynthesis at 0.1 to 10 uM; assay type: functional, cell-based
[2] = Antiosteoarthritis activity in bovine articular chondrocytes assessed as inhibition of IL1-induced reduction of aggrecan mRNA expression at 1 uM after 5 days by RT-PCR analysis relative to control; assay type: functional; settings: Bos taurus, 120 h
[3] = Induction of TGF receptor type 2 mRNA expression in bovine articular chondrocytes at 10 uM after 5 days by RT-PCR analysis relative to control; assay type: functional, Bos taurus
[4] = (§1) Antiosteoarthritis activity in bovine articular chondrocytes assessed as induction of aggrecan mRNA expression at 10 uM after 5 days by RT-PCR analysis relative to control; assay type: functional, Bos taurus
Bos taurus [5] = organism: Bos taurus; experiment: as §1; assay type: functional
[6] = Induction of TGF receptor type 2 mRNA expression in bovine articular chondrocytes at 1 uM after 5 days by RT-PCR analysis relative to control; assay type: functional, Bos taurus
Bos taurus [7] = organism: Bos taurus; experiment: Induction of TGF-beta1 mRNA expression in bovine articular chondrocytes at 1 uM after 5 days by RT-PCR analysis in presence of IL-1; assay type: functional, cell-based
Bos taurus [8] = organism: Bos taurus; experiment: Induction of TGF-beta1 mRNA expression in bovine articular chondrocytes at 10 uM after 5 days by RT-PCR analysis; assay type: functional, cell-based
[9] = Induction of TGF-beta2 mRNA expression in bovine articular chondrocytes at 1 uM after 5 days by RT-PCR analysis relative to control; assay type: functional, Bos taurus
Bos taurus [10] = organism: Bos taurus; experiment: Induction of TGF-beta1 mRNA expression in bovine articular chondrocytes at 10 uM after 5 days by RT-PCR analysis in presence of IL-1; assay type: functional, cell-based
Bos taurus [11] = organism: Bos taurus; experiment: Induction of TGF receptor type 1 mRNA expression in bovine articular chondrocytes at 10 uM after 5 days by RT-PCR analysis; assay type: functional, cell-based
[12] = Antiosteoarthritis activity in bovine articular chondrocytes assessed as inhibition of IL1-induced reduction of aggrecan mRNA expression at 0.1 uM after 5 days by RT-PCR analysis relative to control; assay type: functional; settings: Bos taurus, 120 h
Bos taurus [13] = organism: Bos taurus; experiment: Induction of TGF-beta1 mRNA expression in bovine articular chondrocytes at 1 uM after 5 days by RT-PCR analysis; assay type: functional, cell-based
Bos taurus [14] = organism: Bos taurus; experiment: Induction of TGF receptor type 1 mRNA expression in bovine articular chondrocytes at 1 uM after 5 days by RT-PCR analysis in presence of IL-1; assay type: functional, cell-based
Bos taurus [15] = organism: Bos taurus; experiment: Induction of TGF receptor type 1 mRNA expression in bovine articular chondrocytes at 10 uM after 5 days by RT-PCR analysis in presence of IL-1; assay type: functional, cell-based
[16] = Induction of TGF-beta2 mRNA expression in bovine articular chondrocytes at 10 uM after 5 days by RT-PCR analysis relative to control; assay type: functional, Bos taurus
Bos taurus [17] = organism: Bos taurus; experiment: Induction of TGF receptor type 1 mRNA expression in bovine articular chondrocytes at 1 uM after 5 days by RT-PCR analysis; assay type: functional, cell-based
[18] = (§2) Antiosteoarthritis activity in bovine articular chondrocytes assessed as inhibition of IL1-induced reduction of aggrecan mRNA expression at 1 uM after 5 days by Northern blot analysis relative to control; assay type: functional, Bos taurus; set-up: scale not given: the % may be the effect or the level left
Bos taurus [19] = organism: Bos taurus; experiment: as §2; assay type: functional
Bos taurus [20] = organism: Bos taurus; experiment: (§3) Antiosteoarthritis activity in bovine articular chondrocytes assessed as inhibition of IL1-induced reduction of aggrecan mRNA expression at 10 uM after 5 days by Northern blot analysis relative to control; assay type: functional
[21] = (§4) Antiosteoarthritis activity in bovine articular chondrocytes assessed as inhibition of IL1-induced reduction of aggrecan mRNA expression at 0.1 uM after 5 days by Northern blot analysis relative to control; assay type: functional, Bos taurus; set-up: scale not given: the % may be the effect or the level left
Bos taurus [22] = organism: Bos taurus; experiment: as §4; assay type: functional
[23] = (§5) Antiosteoarthritis activity in bovine articular chondrocytes assessed as induction of aggrecan mRNA expression at 0.1 uM after 5 days by Northern blot analysis relative to control; assay type: functional, Bos taurus
[24] = (§6) Antiosteoarthritis activity in bovine articular chondrocytes assessed as induction of aggrecan mRNA expression at 10 uM after 5 days by Northern blot analysis relative to control; assay type: functional; settings: Bos taurus, 120 h; values are per cent of control
Bos taurus [25] = organism: Bos taurus; experiment: (§7) Antiosteoarthritis activity in bovine articular chondrocytes assessed as induction of aggrecan mRNA expression at 1 uM after 5 days by Northern blot analysis relative to control; assay type: functional
Bos taurus [26] = organism: Bos taurus; experiment: as §5; assay type: functional
Bos taurus [27] = organism: Bos taurus; experiment: as §6; assay type: functional
[28] = as §3; assay type: functional, Bos taurus; set-up: scale not given: the % may be the effect or the level left
[29] = as §7; assay type: functional, Bos taurus

SMILES | Activity (Bos taurus [19]) | Activity (Bos taurus [20]) | Activity (Bos taurus [22]) | Activity [23] | Activity (Bos taurus [25]) | Activity (Bos taurus [26]) | Activity (Bos taurus [27]) | also measured
CN1C(C(=O)NCCC[N+](C)(C)C)=C(O)c2ccccc2S1(=O)=O.[I-] | – | – | – | – | – | – | – | Activity (Bos taurus [1]): Active; inhibition at 1 µM [2]: 63%; Activity [3]: 18%; Activity [4]: 62%; Activity (Bos taurus [5]): Active; Activity [6]: 45%; Activity (Bos taurus [7]): inactive; Activity (Bos taurus [8]): inactive; Activity [9]: 30%; Activity (Bos taurus [10]): inactive; Activity (Bos taurus [11]): inactive; inhibition at 0.1 µM [12]: 150%; Activity (Bos taurus [13]): inactive; Activity (Bos taurus [14]): inactive; Activity (Bos taurus [15]): inactive; Activity [16]: 37%; Activity (Bos taurus [17]): inactive
CC[N+](C)(CC)CCCNC(=O)C1=C(O)c2ccccc2S(=O)(=O)N1C.[I-] | Active | Active | Active | 31% | – | – | – | Activity (Bos taurus [1]): Active; inhibition at 1 µM [2]: 130%; Activity [4]: 31%; Activity [18]: 130%; Activity [21]: 216%; response, % of control at 10 µM [24]: 216%
CC[N+](CC)(CC)CCCNC(=O)C1=C(O)c2ccccc2S(=O)(=O)N1C | inactive | inactive | inactive | – | inactive | inactive | inactive | –
CN(C)CCCNC(=O)C1=C(O)c2ccccc2S(=O)(=O)N1C [PROPOXICAM] | Active | Active | Active | 25% | – | – | – | Activity (Bos taurus [7]): inactive; Activity [28]: 65%; Activity (Bos taurus [8]): inactive; Activity [29]: 25%; Activity [9]: 31%; Activity (Bos taurus [10]): inactive; Activity (Bos taurus [11]): inactive; Activity (Bos taurus [13]): inactive; Activity (Bos taurus [14]): inactive; Activity (Bos taurus [15]): inactive; Activity [16]: 22%; Activity (Bos taurus [17]): inactive
CC[N+](C)(C)CCCNC(=O)C1=C(O)c2ccccc2S(=O)(=O)N1C | inactive | inactive | inactive | – | inactive | inactive | inactive | –
CN1C(C(=O)NCCCC[N+](C)(C)C)=C(O)c2ccccc2S1(=O)=O | inactive | inactive | inactive | – | inactive | inactive | inactive | –
CN1C(C(=O)Nc2ccccn2)=C(O)c2ccccc2S1(=O)=O [PIROXICAM] | Active | Active | Active | 23% | – | – | – | Activity [29]: 37%
CN1C(C(=O)NCCC[n+]2ccccc2)=C(O)c2ccccc2S1(=O)=O | inactive | inactive | inactive | – | inactive | inactive | inactive | –
